Laboratory results taken from US20220175766A1, “COMPOSITIONS AND METHODS OF TREATMENT” (GB004, Inc., priority 2019, published 2022).
Read-outs that look alike come from different tables or passages of the source.

Tests used:
[1] = Phase 1a multiple ascending dose study (oral solution): plasma pharmacokinetics; format: in vivo, human; settings: for concentration at 0.5 h / concentration at 1 h / concentration at 2 h / concentration at 3 h / concentration at 4 h / concentration at 6 h / concentration at 8 h / concentration at 12 h / concentration at 16 h / concentration at 24 h / AUC(0-t) / Cmax / AUC / Tmax: human, plasma, oral; for concentration at 0.5 h: Hour 0.5; for concentration at 0.5 h / concentration at 1 h / concentration at 2 h / concentration at 3 h / concentration at 4 h / concentration at 6 h / concentration at 8 h / concentration at 12 h / concentration at 16 h / concentration at 24 h: read-out: Compound 1 concentration, Conc (SD); for concentration at 1 h: Hour 1; for concentration at 2 h: Hour 2; for concentration at 3 h: Hour 3; for concentration at 4 h: Hour 4; for concentration at 6 h: Hour 6; for concentration at 8 h: Hour 8; for concentration at 12 h: Hour 12; for concentration at 16 h: Hour 16; for concentration at 24 h: Hour 24; for AUC: read-out: AUC(0-τ), mean (SD); for Tmax: read-out: Tmax, median (range)
Protocol: Compound 1 was administered as the HCl-salt (prepared analogously to Example 2.1).
The secondary objective was to characterize the multiple dose pharmacokinetic (PK) parameters of Compound 1, after ascending doses. Secondary endpoints included determination of PK parameters in plasma and urine, fecal excretion and assessment of colonic biopsy samples.
Blood samples were collected at the following time points relative to dose administration on Day 1 and Day 7: pre-dose; 0.5, 1, 2, 3, 4, 6, 8, 12, 16 and 24 hours post dose. Analysis and concentration determinations were performed using a liquid chromatography-mass spectrometry and liquid chromatography-tandem mass spectrometry (LC/MS/MS) method.

[2] = Phase 1a multiple ascending dose study: Compound 1 concentration in colon tissue (colonic mucosal biopsy); format: in vivo, human
Source text: Colonic mucosal biopsy samples were acquired.

[3] = pKa of Compound 1; format: physicochemical; settings: two basic groups
Source text: The pKa value expresses the strength of acids and base, i.e. the tendency for an acid to lose a proton or a base to accept a proton (Bronsted J. N. Rec. trav. Chim. (47), 718, 1923) and the protonation and deprotonation of the basic groups in the compound has a marked effect upon the solubility of Compound 1 in aqueous media. Consequently, the solubility of Compound 1 is highly dependent upon pH.

[4] = Phase 1a multiple ascending dose study (oral solution): safety and tolerability; format: in vivo, human
Protocol: The primary objective of the study was to assess the safety and tolerability of ascending doses of Compound 1 after multiple oral doses administration. The safety endpoints included TEAE incidence and severity, clinically significant changes in vital signs, ECG parameters, clinical laboratory tests and physical examination.
Safety and tolerability were assessed by review of vital signs, laboratory results (serum chemistry, hematology and urinalysis), ECG, physical examination findings, AEs, and PK assessment following the Day 1 and Day 7 doses. […] One event of vomiting led to early trial discontinuation in the 240 mg dose group.

[5] = Cohort 1, 60 mg once daily, Day 7
[6] = Cohort 2, 120 mg once daily, Day 7
[7] = Cohort 3, 240 mg once daily, Day 7
[8] = Cohort 4, 120 mg once daily, Day 7
[9] = Cohort 5, 60 mg once daily, Day 7
[10] = 60 mg, Cohort 1, 60 mg once daily, Day 7
[11] = 60 mg, Cohort 5, 60 mg once daily, Day 7
[12] = 120 mg, Cohort 2, 120 mg once daily, Day 7
[13] = 120 mg, Cohort 2, 120 mg, Day 1
[14] = 120 mg, Cohort 4, 120 mg once daily, Day 7
[15] = 120 mg, Cohort 4, 120 mg, Day 1
[16] = 240 mg, Cohort 3, 240 mg once daily, Day 7
[17] = 240 mg, Cohort 3, 240 mg, Day 1

## CC(C)(C)OC(=O)N1CCN(Cc2ccn(Cc3ccc(Cl)cc3)c(=O)c2O)CC1 [Compound 1, tert-butyl 4-((1-(4-chlorobenzyl)-3-hydroxy-2-oxo-1,2-dihydropyridin-4-yl)methyl)piperazine-1-carboxylate]
[1]; [5]
  ARAUC (accumulation ratio of AUC), mean: 2.1
  ARCmax (accumulation ratio of Cmax), mean: 1.0
[1]; Cohort 1, 60 mg, Day 1
  Tmax, median (range): 0.5 (0.5-1.0) h
[1]; [6]
  ARAUC (accumulation ratio of AUC), mean: 1.8
  ARCmax (accumulation ratio of Cmax), mean: 1.2
[1]; [7]
  ARAUC (accumulation ratio of AUC), mean: 1.4
  ARCmax (accumulation ratio of Cmax), mean: 1.0
[1]; [8]
  ARAUC (accumulation ratio of AUC), mean: 2.3
  ARCmax (accumulation ratio of Cmax), mean: 1.3
[1]; Cohort 4, 120 mg, Day 1
  Tmax, median (range): 0.5 (0.5-1.0) h
[1]; [9]
  ARAUC (accumulation ratio of AUC), mean: 3.0
  ARCmax (accumulation ratio of Cmax), mean: 1.3
[1]; [10]
  concentration at 0.5 h: 4.33 ng/mL
  concentration at 1 h: 3.02 ng/mL
  concentration at 2 h: 1.85 ng/mL
  concentration at 3 h: 0 ng/mL
  concentration at 4 h: 0 ng/mL
  concentration at 6 h: 0 ng/mL
  concentration at 8 h: 0 ng/mL
  concentration at 12 h: 0 ng/mL
  concentration at 16 h: 0 ng/mL
  concentration at 24 h: 0 ng/mL
[1]; 60 mg, Cohort 1, 60 mg once daily, Day 7, read-out: AUC(0-t), mean
  AUC(0-t): 17 ng·h/mL
[1]; 60 mg, Cohort 1, 60 mg once daily, Day 7, read-out: Cmax, mean
  Cmax: 4.33 ng/mL
[1]; 60 mg, Cohort 1, 60 mg, Day 1
  concentration at 0.5 h: 3.88 ng/mL
  concentration at 1 h: 3.16 ng/mL
  concentration at 4 h: 0 ng/mL
  concentration at 6 h: 0 ng/mL
  concentration at 8 h: 0 ng/mL
  concentration at 12 h: 0 ng/mL
  concentration at 16 h: 0 ng/mL
  concentration at 24 h: 0 ng/mL
[1]; 60 mg, Cohort 1, 60 mg, Day 1, read-out: AUC(0-τ) column, AUClast is presented (footnote b), mean (SD)
  AUC(0-t): 5.32 ng·h/mL
[1]; 60 mg, Cohort 1, 60 mg, Day 1, read-out: Cmax, mean (SD)
  Cmax: 4.11 ng/mL
[1]; [11]
  concentration at 0.5 h: 6.24 ng/mL
  concentration at 1 h: 4.6 ng/mL
  concentration at 2 h: 2.57 ng/mL
  concentration at 3 h: 1.99 ng/mL
  concentration at 4 h: 1.62 ng/mL
  concentration at 6 h: 2.15 ng/mL
  concentration at 8 h: 2 ng/mL
  concentration at 12 h: 1.7 ng/mL
  concentration at 16 h: 1.59 ng/mL
  concentration at 24 h: 1.18 ng/mL
[1]; 60 mg, Cohort 5, 60 mg once daily, Day 7, read-out: AUC(0-t), mean
  AUC(0-t): 53.2 ng·h/mL
[1]; 60 mg, Cohort 5, 60 mg once daily, Day 7, read-out: Cmax, mean
  Cmax: 6.31 ng/mL
[1]; 60 mg, Cohort 5, 60 mg, Day 1
  concentration at 0.5 h: 4.83 ng/mL
  concentration at 1 h: 3.94 ng/mL
  concentration at 3 h: 0 ng/mL
  concentration at 4 h: 0 ng/mL
  concentration at 6 h: 0 ng/mL
  concentration at 8 h: 0 ng/mL
  concentration at 12 h: 0 ng/mL
  concentration at 16 h: 0 ng/mL
  concentration at 24 h: 0 ng/mL
  AUC: 28.7 ng·h/mL
[1]; 60 mg, Cohort 5, 60 mg, Day 1, read-out: Cmax, mean (SD)
  Cmax: 5.06 ng/mL
[1]; [12]
  concentration at 0.5 h: 11.1 ng/mL
  concentration at 1 h: 7.7 ng/mL
  concentration at 2 h: 4.5 ng/mL
  concentration at 3 h: 3.19 ng/mL
  concentration at 4 h: 1.6 ng/mL
  concentration at 6 h: 2.04 ng/mL
  concentration at 8 h: 2.26 ng/mL
  concentration at 12 h: 1.41 ng/mL
  concentration at 16 h: 1.39 ng/mL
  concentration at 24 h: 0 ng/mL
[1]; 120 mg, Cohort 2, 120 mg once daily, Day 7, read-out: AUC(0-t), mean
  AUC(0-t): 48.2 ng·h/mL
[1]; 120 mg, Cohort 2, 120 mg once daily, Day 7, read-out: Cmax, mean
  Cmax: 11.4 ng/mL
[1]; [13]
  concentration at 0.5 h: 9.54 ng/mL
  concentration at 1 h: 6.08 ng/mL
  concentration at 3 h: 1.95 ng/mL
  concentration at 4 h: 0 ng/mL
  concentration at 6 h: 0 ng/mL
  concentration at 8 h: 0 ng/mL
  concentration at 12 h: 0 ng/mL
  concentration at 16 h: 0 ng/mL
  concentration at 24 h: 0 ng/mL
  AUC: 27.9 ng·h/mL
[1]; 120 mg, Cohort 2, 120 mg, Day 1, read-out: Cmax, mean (SD)
  Cmax: 9.54 ng/mL
[1]; [14]
  concentration at 0.5 h: 15.6 ng/mL
  concentration at 1 h: 9.34 ng/mL
  concentration at 2 h: 5.32 ng/mL
  concentration at 3 h: 3.69 ng/mL
  concentration at 4 h: 2.98 ng/mL
  concentration at 6 h: 3.3 ng/mL
  concentration at 8 h: 3.03 ng/mL
  concentration at 12 h: 2.59 ng/mL
  concentration at 16 h: 2.26 ng/mL
  concentration at 24 h: 1.92 ng/mL
[1]; 120 mg, Cohort 4, 120 mg once daily, Day 7, read-out: AUC(0-t), mean
  AUC(0-t): 75.8 ng·h/mL
[1]; 120 mg, Cohort 4, 120 mg once daily, Day 7, read-out: Cmax, mean
  Cmax: 15.6 ng/mL
[1]; [15]
  concentration at 0.5 h: 11.9 ng/mL
  concentration at 1 h: 8.03 ng/mL
  concentration at 3 h: 2.68 ng/mL
  concentration at 4 h: 1.48 ng/mL
  concentration at 6 h: 1.14 ng/mL
  concentration at 8 h: 0 ng/mL
  concentration at 12 h: 0 ng/mL
  concentration at 16 h: 0 ng/mL
  concentration at 24 h: 0 ng/mL
  AUC: 38.1 ng·h/mL
[1]; 120 mg, Cohort 4, 120 mg, Day 1, read-out: Cmax, mean (SD)
  Cmax: 12 ng/mL
[1]; [16]
  concentration at 0.5 h: 28.5 ng/mL
  concentration at 1 h: 20.5 ng/mL
  concentration at 2 h: 10.3 ng/mL
  concentration at 3 h: 7.61 ng/mL
  concentration at 4 h: 6.99 ng/mL
  concentration at 6 h: 6.8 ng/mL
  concentration at 8 h: 6.44 ng/mL
  concentration at 12 h: 4.66 ng/mL
  concentration at 16 h: 3.27 ng/mL
  concentration at 24 h: 2.53 ng/mL
[1]; 240 mg, Cohort 3, 240 mg once daily, Day 7, read-out: AUC(0-t), mean
  AUC(0-t): 139 ng·h/mL
[1]; 240 mg, Cohort 3, 240 mg once daily, Day 7, read-out: Cmax, mean
  Cmax: 28.8 ng/mL
[1]; [17]
  concentration at 0.5 h: 25.7 ng/mL
  concentration at 1 h: 15 ng/mL
  concentration at 3 h: 5.97 ng/mL
  concentration at 4 h: 4.12 ng/mL
  concentration at 6 h: 3.39 ng/mL
  concentration at 8 h: 3.02 ng/mL
  concentration at 12 h: 3.13 ng/mL
  concentration at 16 h: 2.25 ng/mL
  concentration at 24 h: 1.35 ng/mL
  AUC: 91.5 ng·h/mL
[1]; 240 mg, Cohort 3, 240 mg, Day 1, read-out: Cmax, mean (SD)
  Cmax: 25.7 ng/mL
[1]; Cohort 2, 120 mg, Day 1
  Tmax: 30 min
[1]; Cohort 3, 240 mg, Day 1
  Tmax: 30 min
[1]; Cohort 5, 60 mg, Day 1
  Tmax: 30 min
[2]; Cohort 2, 120 mg
  Compound 1 Concentration in Colon Tissue, Median (Range): 10.75 (0-1150) ng/g
[2]; Cohort 3, 240 mg
  Compound 1 Concentration in Colon Tissue, Median (Range): 23.50 (0-301) ng/g
[2]; Cohort 4, 120 mg
  Compound 1 Concentration in Colon Tissue, Median (Range): 127.47 (0-3330) ng/g
[2]; Cohort 5, 60 mg
  Compound 1 Concentration in Colon Tissue, Median (Range): 102.30 (0-1360) ng/g
[2]; colonic mucosal biopsy samples
  Compound 1 colon tissue levels (in words): increase in a dose-dependent manner
[3]
  pKa: 6.5
[4]; 240 mg dose once daily
  Tolerability: less well tolerated
[4]; doses up to 120 mg once daily for 8 days
  Tolerability: generally well tolerated
